Reference: PMC6027674, “Acetylcholinesterase Inhibition and Antioxidant Activity of N-trans-Caffeoyldopamine and N-trans-Feruloyldopamine” (Scientia Pharmaceutica, 2018)
Several values for one entry are separate records, joined by “and”; a condition that tells them apart may be missing. Equal values may be shown once.

Experiments:
[1] = DPPH free radical scavenging assay; details: 30 min, room temperature, dark, 517 nm; mean ± SD, n = 3; read-out: DPPH^• Scavenge IC50
Text: The 2,2-diphenyl-1-pycrylhydrazyl free radical (DPPH^•) scavenging method is widely used to evaluate the free radical scavenging ability of natural antioxidants. 2,2-Diphenyl-1-pycrylhydrazyl is a stable nitrogen centered free radical, which has a violet color that changes to yellow after reduction by the process of either hydrogen atom or single electron transfer mechanism. Compounds that are able to execute this reaction can be considered antioxidants and therefore radical scavengers. In the radical form, the DPPH molecule has an absorbance of 517 nm, which disappears after the acceptance of an electron or hydrogen radical from an antioxidant compound, to become a stable diamagnetic molecule. The DPPH^• scavenging activities of the tested compounds were estimated using the method of [35] with slight modification. To 1 mL methanolic solution of DPPH^• (0.08 mM), 0.1 mL of the tested compounds were added. The resulting mixture was shaken thoroughly and allowed to stand at room temperature in the dark for 30 min, after which the absorbance of the solution was measured at 517 nm. L(+)-Ascorbic acid was used as the positive control. The negative control contained DPPH^• and methanol. The ability to scavenge DPPH radical was calculated using the equation:(2) % DPPH radical scavenge = (1 − At/A0) × 100 where A0 is the absorbance of the control and At is the absorbance of the tested compound. The DPPH^• absorbance decreases with an increase in the DPPH radical scavenging activity.
(§1) All data on AChE inhibition/antioxidant activity are the average of triplicate analyses (n = 3) and the data were recorded as mean ± standard deviation. Regression analysis was performed to calculate the dose-response relation and IC50 values were obtained from the equations y = a ± bx.

[2] = ABTS radical cation scavenging assay; details: 7 min, room temperature, 734 nm; mean ± SD, n = 3; read-out: ABTS^•+ Scavenge IC50
Experimental: The 2,2′-azinobis(3-ethylbenzothiazoline-6-sulphonic acid) radical cation (ABTS^•+), which absorbs at 734 nm, is formed by oxidation of the commercially available neutral species. This oxidation can be done by potassium persulphate, manganese (IV) oxide, or electrochemical methods. In the presence of a hydrogen-donating antioxidant, the […] quenches the hydrogen atom, which is followed by decolorization. In this study, the ABTS^•+ was produced by mixing 7 mM ABTS stock solution with 2.45 mM potassium persulfate and allowing the mixture to stand in a dark at room temperature for 16 h before use. Different concentrations of the tested compounds (0.1 mL) were added to 1 mL ABTS^•+ solution. The reaction mixtures were mixed thoroughly, incubated at room temperature for 7 min, and the absorbance was recorded at 734 nm. The ability to scavenge the ABTS radical cation was calculated using the following equation:(3) % ABTS radical cation scavenge = (1 − At/A0) × 100 where A0 is the absorbance of the control and At is the absorbance of the tested compound. The ABTS^•+ solution without any sample was used as a control, prepared by using the same procedure. From the percentage of the scavenging activity at different tested compounds concentrations, IC50 values were calculated and compared with those of standard L(+)-ascorbic acid solution.
as §1

[3] = biological target: acetylcholinesterase (AChE) from Electrophorus electricus (Electrophorus electricus, UniProt O42275); test: biochemical; details: AChE from E. electricus; 15 min incubation at 37 °C, pH 8; mean ± SD, n = 3; read-out: AChE Inhibition IC50
[4] = Ferric-reducing antioxidant power (FRAP) assay; details: pH 3.6, 6 min, 593 nm; mean ± SD, n = 3
Experimental: The FRAP assay is a typical electron transfer-based method that measures the reduction of (Fe^3+)-ligand complex to the intensely blue-colored ferrous (Fe^2+)-ligand complex by antioxidants. The FRAP assay is carried out under acidic pH conditions in order to maintain iron solubility and more importantly, drive electron transfer. This will increase the redox potential, causing a shift in the dominant reaction mechanism. The FRAP assay was done according to the method described by Benzie and Strain [40] with slightly modifications. The stock solutions included 300 mM acetate buffer (pH 3.6), 10 mM 2,4,6-tris(2-pyridyl)-s-triazine (TPTZ) solution in ethanol, and 20 mM FeCl3 solution in 20 mM HCl. […] An aliquot of 0.1 mL of the tested compound was allowed to react with 3.0 mL of the FRAP working solution and 0.3 mL of water. […] The results are expressed as L(+)-ascorbic acid equivalent (AAE).
(§2) Regression analysis was performed to calculate the dose-response relation and IC50 values were obtained from the equations y = a ± bx.

[5] = Fe(II)-chelating assay (inhibition of Fe^2+–ferrozine complex formation); details: 10 min, room temperature, 562 nm
Text: Among the transition metals, Fe^2+ ions are well-known for their significant role as a prooxidants in the lipid oxidation process and the formation of hydroxyl radicals in Fenton-type reactions. However, effective chelating agents can reduce the damage resulting from these reactions. The most important spectrophotometric method for studying chelation activity is the inhibition of the Fe^2+–ferrozine complex formation, during which ferrozine reacts quantitatively with Fe^2+ ions in the […] of a chelating agent and complex formation is disrupted. Measurement of color reduction therefore allows estimation of the metal chelating activity of the coexisting chelator. The chelating abilities on Fe^2+ by the tested compounds were estimated by the method as described by Dinis. Briefly, 0.4 mL of the tested compound was added to 0.05 mL of FeCl2 (2 mM) solution. The reaction was initiated by the addition of ferrozine (0.2 mL, 5 mM). The total volume of the systems was adjusted to 4 mL with ethanol. Then, the mixture was shaken vigorously and left at room temperature for 10 min. […] The percentage of chelating effect was calculated by using the equation below:(4) % Chelating effect = (1 − At/A0) × 100 where A0 is the absorbance of the control and At is the absorbance of the tested compound.
as §2

[6] = read-out: Chelation ability IC50 (Fe^2+ ions)

Chain of acetylcholinesterase (AChE) from Electrophorus electricus (O42275 24-633): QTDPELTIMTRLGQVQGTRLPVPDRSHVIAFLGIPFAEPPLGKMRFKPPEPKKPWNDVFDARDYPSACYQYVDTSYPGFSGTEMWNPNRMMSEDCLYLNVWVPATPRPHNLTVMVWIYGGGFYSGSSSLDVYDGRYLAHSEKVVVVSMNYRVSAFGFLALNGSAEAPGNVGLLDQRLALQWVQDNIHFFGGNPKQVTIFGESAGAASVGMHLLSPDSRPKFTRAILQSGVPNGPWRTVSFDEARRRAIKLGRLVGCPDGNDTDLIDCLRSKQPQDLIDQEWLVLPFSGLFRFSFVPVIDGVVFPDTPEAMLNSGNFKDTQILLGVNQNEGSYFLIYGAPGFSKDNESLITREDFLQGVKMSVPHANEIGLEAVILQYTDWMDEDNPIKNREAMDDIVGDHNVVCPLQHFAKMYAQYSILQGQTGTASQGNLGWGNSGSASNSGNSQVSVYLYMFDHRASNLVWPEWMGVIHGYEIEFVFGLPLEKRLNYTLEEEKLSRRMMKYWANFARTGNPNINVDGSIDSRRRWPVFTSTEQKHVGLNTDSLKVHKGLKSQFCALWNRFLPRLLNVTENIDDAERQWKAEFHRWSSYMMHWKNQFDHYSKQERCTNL

SMILES: O=C1O[C@H]([C@@H](O)CO)C(O)=C1O [L(+)-Ascorbic acid]
- IC50 [1]: 1.14 ± 0.03 µM
- IC50 [2]: 110 nM

SMILES: O=C(/C=C/c1ccc(O)c(O)c1)NCCc1ccc(O)c(O)c1 [N-trans-Caffeoyldopamine]
- IC50 [3]: 19.1 ± 0.83 µM
- IC50 [1]: 5.95 ± 0.12 µM
- IC50 [2]: 240 nM
- FRAP AAE (L(+)-ascorbic acid equivalent) [4]: 822.45 μmol/mmol and 822.45 ± 13.53 μmol/mmol
- IC50 ([5]; read-out: Chelation of ferrous ions IC50): 3.48 mM

SMILES: COc1cc(/C=C/C(=O)NCCc2ccc(O)c(O)c2)ccc1O [N-trans-Feruloyldopamine]
- IC50 [3]: 8.52 ± 0.27 µM
- IC50 [1]: 12.29 ± 0.04 µM
- IC50 [2]: 740 nM
- FRAP AAE (L(+)-ascorbic acid equivalent) [4]: 661.53 ± 13.51 μmol/mmol
- IC50 [5, 6]: 3.17 mM

SMILES: O=C([O-])CN(CCN(CC(=O)[O-])CC(=O)O)CC(=O)O.[Na+].[Na+] [Na2EDTA, disodium ethylenediaminetetraacetate]
- IC50 [5, 6]: 0.01 mM

SMILES: O=C(O)/C=C/c1ccc(O)c(O)c1 [trans-Caffeic acid]
- IC50 [1]: 18.9 ± 0.22 µM
- IC50 [2]: 1190 ± 20 nM
- FRAP AAE (L(+)-ascorbic acid equivalent) [4]: 526.05 ± 12.87 μmol/mmol
- IC50 [5, 6]: 12.9 mM

SMILES: COc1cc(/C=C/C(=O)O)ccc1O [trans-Ferulic acid]
- IC50 [3]: 20.6 ± 0.65 µM
- IC50 [1]: 19.93 ± 0.18 µM
- IC50 [2]: 1620 ± 10 nM
- IC50 [5, 6]: 5.06 mM
